target: T1, PIP4K2C (Homo sapiens, UniProt Q8TBX8); assay: HiBiT PIP4K2C degradation assay in MOLT-4 cells (endogenous PIP4K2C C-terminally tagged with HiBiT); format: cell-based; design: untagged in primary human PBMCs and monocyte-derived dendritic cells; details: 6 hours of incubation time, rather than 24 hours; MOLT-4, top concentration 10 micromolar; read-out: HiBIT-degradation MOLT4 PIP4k2C DC50 (6 hours, marked *)
T1 sequence (Q8TBX8 1-421): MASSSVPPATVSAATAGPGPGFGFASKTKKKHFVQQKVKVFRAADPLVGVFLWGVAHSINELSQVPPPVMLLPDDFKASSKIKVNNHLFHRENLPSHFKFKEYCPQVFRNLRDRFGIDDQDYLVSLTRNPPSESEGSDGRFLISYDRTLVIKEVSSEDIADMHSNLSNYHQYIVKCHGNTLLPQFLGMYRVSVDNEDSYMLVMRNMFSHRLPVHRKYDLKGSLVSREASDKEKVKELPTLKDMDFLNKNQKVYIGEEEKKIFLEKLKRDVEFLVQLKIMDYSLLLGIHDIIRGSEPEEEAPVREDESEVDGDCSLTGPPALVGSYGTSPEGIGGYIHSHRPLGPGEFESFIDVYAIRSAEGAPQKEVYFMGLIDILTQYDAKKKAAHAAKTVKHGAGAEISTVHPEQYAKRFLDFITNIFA
Method in brief: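 Endogenous PIP4K2C was C-terminally HiBiT-tagged by CRISPR-Cas9 in MOLT-4 cells, which were treated with a 10-point, 3-fold dilution series from 10 micromolar in duplicate for 24 or 6 hours at 37 C. Remaining protein was read by HiBiT lytic luminescence, and DC50 came from a Hill fit.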

DC50, < 500 nM:
O=C1CCC(Nc2ccc(C3CCN([C@H]4CC[C@H](C(=O)N[C@H]5CC[C@H](Nc6ncc(F)c(-c7cccc(N8CCCOC8=O)c7)n6)CC5)CC4)CC3)c(F)c2)C(=O)N1 (stereo partly drawn) [Compound 576, trans-(1r,4R)-4-(4-(4-((2,6-dioxopiperidin-3-yl)amino)-2-fluorophenyl)piperidin-1-yl)-N-((1r,4R)-4-((5-fluoro-4-(3-(2-oxo-1,3-oxazinan-3-yl)phenyl)pyrimidin-2-yl)amino)cyclohexyl)cyclohexane-1-carboxamide]
O=C1CCC(Nc2ccc(C3CCN(CC4CCN(C(=O)[C@H]5CC[C@H](Nc6ncc(F)c(-c7cccc(-c8ccccc8)c7)n6)CC5)CC4)CC3)c(F)c2)C(=O)N1 (stereo partly drawn) [Compound 466, 3-((4-(1-((1-(trans-4-((4-([1,1′-biphenyl]-3-yl)-5-fluoropyrimidin-2-yl)amino)cyclohexane-1-carbonyl)piperidin-4-yl)methyl)piperidin-4-yl)-3-fluorophenyl)amino)piperidine-2,6-dione]
O=C1CCC(Nc2ccc(N3CCN(CC4CCN(C(=O)[C@H]5CC[C@H](Nc6ncc(F)c(-c7cccc(N8CCCCC8=O)c7)n6)CC5)CC4)CC3)c(F)c2)C(=O)N1 (stereo partly drawn) [Compound 393, trans-3-[3-fluoro-4-[4-[[1-[4-[[5-fluoro-4-[3-(2-oxo-1-piperidyl)phenyl]pyrimidin-2-yl]amino]cyclohexanecarbonyl]-4-piperidyl]methyl]piperazin-1-yl]anilino]piperidine-2,6-dione]
Cn1nc(C2CCC(=O)NC2=O)c2ccc(C3CCN(CC4CCN(C(=O)O[C@H]5CC[C@H](Nc6ncc(F)c(-c7cccc(-c8ccccc8)c7)n6)CC5)CC4)CC3)cc21 (stereo partly drawn) [Compound 647, trans-4-((4-([1,1′-biphenyl]-3-yl)-5-fluoropyrimidin-2-yl)amino)cyclohexyl 4-((4-(3-(2,6-dioxopiperidin-3-yl)-1-methyl-1H-indazol-6-yl)piperidin-1-yl)methyl)piperidine-1-carboxylate]
O=C1CCC(Nc2ccc(N3CCC(N4CCC(C(=O)N[C@H]5CC[C@H](Nc6ncc(F)c(-c7cccc(N8CCCCC8)c7)n6)CC5)CC4)C(F)(F)C3)c(F)c2)C(=O)N1 (stereo partly drawn) [Compound 498, trans-1′-(4-((2,6-dioxopiperidin-3-yl)amino)-2-fluorophenyl)-3′,3′-difluoro-N-(4-((5-fluoro-4-(3-(piperidin-1-yl)phenyl)pyrimidin-2-yl)amino)cyclohexyl)-[1,4′-bipiperidine]-4-carboxamide]
O=C1CCC(Nc2ccc(N3CCN(CC4(O)CCN(C(=O)[C@H]5CC[C@H](Nc6ncc(F)c(-c7cccc(N8CCCOC8=O)c7)n6)CC5)CC4)CC3)c(F)c2)C(=O)N1 (stereo partly drawn) [Compound 583, trans-3-((3-fluoro-4-(4-((1-(4-((5-fluoro-4-(3-(2-oxo-1,3-oxazinan-3-yl)phenyl)pyrimidin-2-yl)amino)cyclohexane-1-carbonyl)-4-hydroxypiperidin-4-yl)methyl)piperazin-1-yl)phenyl)amino)piperidine-2,6-dione]
O=C1CCC(Nc2ccc(N3CCN(C4CCN(C(=O)O[C@H]5CC[C@H](Nc6ncc(F)c(-c7cccc(N8CCOCC8=O)c7)n6)CC5)CC4)CC3)c(F)c2)C(=O)N1 (stereo partly drawn) [Compound 688, trans-4-((5-fluoro-4-(3-(3-oxomorpholino)phenyl)pyrimidin-2-yl)amino)cyclohexyl 4-(4-(4-((2,6-dioxopiperidin-3-yl)amino)-2-fluorophenyl)piperazin-1-yl)piperidine-1-carboxylate]
O=C1CCC(Nc2ccc(N3CCC(CN4CCN(C(=O)[C@H]5CC[C@H](Nc6ncc(F)c(-c7cccc(-n8ccccc8=O)c7)n6)CC5)CC4)CC3)c(F)c2)C(=O)N1 (stereo partly drawn) [Compound 387, trans-3-((3-fluoro-4-(4-((4-(4-((5-fluoro-4-(3-(2-oxopyridin-1(2H)-yl)phenyl)pyrimidin-2-yl)amino)cyclohexane-1-carbonyl)piperazin-1-yl)methyl)piperidin-1-yl)phenyl)amino)piperidine-2,6-dione]
O=C1CCC(Nc2ccc(C3CCN([C@H]4CC[C@H](C(=O)N[C@H]5CC[C@H](Nc6ncc(F)c(-c7ccnc(-n8ccccc8=O)c7)n6)CC5)CC4)CC3)c(F)c2)C(=O)N1 (stereo partly drawn) [Compound 573, trans-(1r,4R)-4-(4-(4-((2,6-dioxopiperidin-3-yl)amino)-2-fluorophenyl)piperidin-1-yl)-N-((1r,4R)-4-((5-fluoro-4-(2-oxo-2H-[1,2′-bipyridin]-4′-yl)pyrimidin-2-yl)amino)cyclohexyl)cyclohexane-1-carboxamide]
O=C1CCC(Nc2ccc(N3CCN(C[C@H]4CC[C@H](CNC(=O)[C@H]5CC[C@H](Nc6ncc(F)c(-c7cccc(-n8ccccc8=O)c7)n6)CC5)CC4)CC3)c(F)c2)C(=O)N1 (stereo partly drawn) [Compound 416, trans-N-((trans-4-((4-(4-((2,6-dioxopiperidin-3-yl)amino)-2-fluorophenyl)piperazin-1-yl)methyl)cyclohexyl)methyl)-4-((5-fluoro-4-(3-(2-oxopyridin-1(2H)-yl)phenyl)pyrimidin-2-yl)amino)cyclohexane-1-carboxamide]
O=C1CCC(Nc2ccc(N3CCN([C@H]4CC[C@H](C(=O)N[C@H]5CC[C@H](Nc6ncc(F)c(-c7cccc(C8CC8)c7)n6)CC5)CC4)CC3)c(F)c2)C(=O)N1 (stereo partly drawn) [Compound 559, trans-N-(trans-4-((4-(3-cyclopropylphenyl)-5-fluoropyrimidin-2-yl)amino)cyclohexyl)-4-(4-(4-((2,6-dioxopiperidin-3-yl)amino)-2-fluorophenyl)piperazin-1-yl)cyclohexane-1-carboxamide]
O=C1CCC(Nc2ccc(N3CCN(C[C@H]4CC[C@H](CNC(=O)[C@H]5CC[C@H](Nc6ncc(F)c(-c7cccc(N8CCCCC8=O)c7)n6)CC5)CC4)CC3)c(F)c2)C(=O)N1 (stereo partly drawn) [Compound 590, trans-(1r,4R)—N-(((1r,4R)-4-((4-(4-((2,6-dioxopiperidin-3-yl)amino)-2-fluorophenyl)piperazin-1-yl)methyl)cyclohexyl)methyl)-4-((5-fluoro-4-(3-(2-oxopiperidin-1-yl)phenyl)pyrimidin-2-yl)amino)cyclohexane-1-carboxamide]
O=C1CCC(Nc2ccc(N3CCN(C[C@H]4CC[C@H](CC(=O)N[C@H]5CC[C@H](Nc6ncc(F)c(-c7cccc(N8CCCCC8=O)c7)n6)CC5)CC4)CC3)c(F)c2)C(=O)N1 (stereo partly drawn) [Compound 560, trans-2-((1r,4R)-4-((4-(4-((2,6-dioxopiperidin-3-yl)amino)-2-fluorophenyl)piperazin-1-yl)methyl)cyclohexyl)-N-((1r,4R)-4-((5-fluoro-4-(3-(2-oxopiperidin-1-yl)phenyl)pyrimidin-2-yl)amino)cyclohexyl)acetamide]
O=C1CCC(Nc2ccc(C3CCN(C4CCN(C(=O)O[C@H]5CC[C@H](Nc6ncc(F)c(-c7cccc(-c8ccccc8)c7)n6)CC5)CC4)CC3)c(F)c2)C(=O)N1 (stereo partly drawn) [Compound 651, trans-4-((4-([1,1′-biphenyl]-3-yl)-5-fluoropyrimidin-2-yl)amino)cyclohexyl 4-(4-((2,6-dioxopiperidin-3-yl)amino)-2-fluorophenyl)-[1,4′-bipiperidine]-1′-carboxylate]
CN(C(=O)[C@H]1CC[C@H](N2CCC(c3ccc(NC4CCC(=O)NC4=O)cc3F)CC2)CC1)[C@H]1CC[C@H](Nc2ncc(F)c(-c3cccc(-n4ccccc4=O)c3)n2)CC1 (stereo partly drawn) [Compound 653, trans-4-(4-(4-((2,6-dioxopiperidin-3-yl)amino)-2-fluorophenyl)piperidin-1-yl)-N-((trans)-4-((5-fluoro-4-(3-(2-oxopyridin-1 (2H)-yl)phenyl)pyrimidin-2-yl)amino)cyclohexyl)-N-methylcyclohexane-1-carboxamide]

same assay, conditions: 24 hours incubation, MOLT-4, top concentration 10 micromolar; read-out: HiBIT-degradation MOLT4 PIP4k2C 24 hours DC50

DC50, < 500 nM:
O=C1CCC(n2c(=O)oc3cc(N4CCC(CN5CCN(CC(=O)N[C@H]6CC[C@H](Nc7ncc(F)c(-c8cccc(-n9ccccc9=O)c8)n7)CC6)CC5)CC4)ccc32)C(=O)N1 (stereo partly drawn) [Compound 360, 2-(4-((1-(3-(2,6-dioxopiperidin-3-yl)-2-oxo-2,3-dihydrobenzo[d]oxazol-6-yl)piperidin-4-yl)methyl)piperazin-1-yl)-N-(trans-4-((5-fluoro-4-(3-(2-oxopyridin-1(2H)-yl)phenyl)pyrimidin-2-yl)amino)cyclohexyl)acetamide]

same assay, conditions: read-out: HiBIT-degradation MOLT4 PIP4k2C DC50 (6 hours, marked *); 6 hours of incubation time, rather than 24 hours; MOLT-4, top concentration 10 micromolar

DC50, < 500 nM:
Cn1nc(N2CCC(=O)NC2=O)c2ccc(N3CCN(CC4CCN(C(=O)O[C@H]5CC[C@H](Nc6ncc(F)c(-c7cccc(-c8ccccc8)c7)n6)CC5)CC4)CC3)cc21 [Compound 634, trans-4-((4-([1,1′-biphenyl]-3-yl)-5-fluoropyrimidin-2-yl)amino)cyclohexyl 4-((4-(3-(2,4-dioxotetrahydropyrimidin-1 (2H)-yl)-1-methyl-1H-indazol-6-yl)piperazin-1-yl)methyl)piperidine-1-carboxylate]

— US20260355196A1, “INHIBITORS AND DEGRADERS OF PIP4K PROTEIN” (Larkspur Biosciences, Inc., priority 2023, published 2026)
